Patent US5302582A, “Enkastins: new glycopeptides which act to inhibit enkephlinase, processes for their preparation, and their use as pharmaceutical products” (Hoechst Aktiengesellschaft, priority 1987, dated 1994)

Molecular target: T1, enkephalinase preparation solubilized from rat kidneys (Rattus norvegicus, UniProt P07861)
T1 construct: enkephalinase preparation solubilized from rat kidneys; from tissue; host or cells: rat kidney
T1 sequence (P07861 1-750): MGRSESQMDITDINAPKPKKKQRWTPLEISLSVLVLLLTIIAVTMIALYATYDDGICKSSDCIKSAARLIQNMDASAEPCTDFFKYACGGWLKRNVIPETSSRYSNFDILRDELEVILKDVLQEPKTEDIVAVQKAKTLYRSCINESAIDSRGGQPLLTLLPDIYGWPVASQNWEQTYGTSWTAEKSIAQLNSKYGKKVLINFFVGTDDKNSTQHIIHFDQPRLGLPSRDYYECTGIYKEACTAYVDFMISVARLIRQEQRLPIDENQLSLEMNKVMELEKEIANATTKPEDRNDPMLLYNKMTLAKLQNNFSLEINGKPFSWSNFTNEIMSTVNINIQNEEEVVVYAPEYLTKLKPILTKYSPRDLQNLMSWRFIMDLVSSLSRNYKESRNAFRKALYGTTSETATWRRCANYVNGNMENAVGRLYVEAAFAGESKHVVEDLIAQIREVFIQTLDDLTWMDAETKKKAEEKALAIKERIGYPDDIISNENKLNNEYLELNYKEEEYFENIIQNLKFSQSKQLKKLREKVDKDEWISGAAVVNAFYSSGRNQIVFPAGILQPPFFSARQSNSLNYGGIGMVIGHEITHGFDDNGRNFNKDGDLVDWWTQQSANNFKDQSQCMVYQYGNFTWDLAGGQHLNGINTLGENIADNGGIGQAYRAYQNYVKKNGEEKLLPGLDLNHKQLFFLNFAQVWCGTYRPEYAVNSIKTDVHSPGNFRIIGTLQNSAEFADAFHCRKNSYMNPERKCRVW
Test: Enkephalinase assay (enkephalinase inhibition)
Format: biochemical
Settings: for IC50: inhibitor preincubated with the enzyme at room temperature for 60 minutes before addition of the substrate, read-out: IC50 (50% inhibition of enkephalinase); for enkephalinase-inhibitory activity of HPLC peaks: freeze-dried RP-18 HPLC fractions of crude enkastin complex from Streptomyces albus ATCC 21838
Description: The enzyme used was an enkephalinase preparation solubilized from rat kidneys by methods known per se [Mumford, R. A. et al. 1982, Biochem. Biophys. Res. Comm. 109, 1303-1309]. The 50% inhibition of enkephalinase by the compounds according to the invention, i.e. the IC50 value, was determined in a known manner using a concentration series, and the inhibitors, to which the invention relates, having been preincubated with the enzyme at room temperature for 60 minutes before the enzymatic reaction was started by addition of the substrate. Suitable checks for the non-inhibited reaction were carried out in the absence of an inhibitor.

Compound | IC50 [nM] | enkephalinase-inhibitory activity of HPLC peaks
CC(C)[C@H](NCC(=O)[C@@H](O)[C@@H](O)[C@H](O)CO)C(=O)N[C@@H](CC(=O)O)C(=O)O [compound 13, N-(1-deoxytagatos-1-yl)-Val-Asp] | 320 | 
CC(C)[C@@H](NCC(=O)[C@@H](O)[C@H](O)[C@H](O)CO)C(=O)N[C@@H](CC(=O)O)C(=O)O [compound 1, N-(1-deoxyfructos-1-yl)-D-Val-Asp] | 1.3 | 
CC[C@H](C)[C@H](NCC(=O)[C@@H](O)[C@H](O)[C@H](O)CO)C(=O)N[C@@H](CC(=O)O)C(=O)O [compound 7, N-(1-deoxyfructos-1-yl)-Ile-Asp] | 34 | 
CC[C@@H](C)[C@@H](NCC(=O)[C@@H](O)[C@H](O)[C@H](O)CO)C(=O)N[C@@H](CC(=O)O)C(=O)O [compound 2, N-(1-deoxyfructos-1-yl)-D-Ile-Asp] | 1.8 | 
N-(1-deoxyfructos-1-yl)-Ile-Asp [compound 3] | 1.8 | enkephalinase-inhibitory activity
CC[C@H](C)[C@H](NCC(=O)[C@@H](O)[C@H](O)[C@H](O)CO)C(=O)N[C@@H](CC(=O)OC(C)(C)C)C(=O)O [compound 9, N-(1-deoxyfructos-1-yl)-Ile-Asp(OtBu)] | 70 | 
CC[C@H](C)[C@H](NCC(=O)[C@@H](O)[C@H](O)[C@H](O)CO)C(=O)N[C@@H](CO)C(=O)O [compound 11, N-(1-deoxyfructos-1-yl)-Ile-Ser] | 210 | 
CC(C)[C@H](NCC(=O)[C@@H](O)[C@H](O)[C@H](O)CO)C(=O)N[C@@H](CCC(=O)O)C(=O)O [compound 6, N-(1-deoxyfructos-1-yl)-Val-Glu] | 34 | enkephalinase-inhibitory activity

Continued by falling IC50, values first:

IC50 [nM] | enkephalinase-inhibitory activity of HPLC peaks | Compound
340 |  | CC[C@@H](C)[C@@H](NCC(=O)[C@@H](O)[C@H](O)[C@H](O)CO)C(=O)O [compound 14, N-(1-deoxyfructos-1-yl)-D-Ile]
230 |  | CC(C)[C@@H](NCC(=O)[C@@H](O)[C@H](O)[C@H](O)CO)C(=O)O [compound 12, N-(1-deoxyfructos-1-yl)-D-Val]
75 |  | N-(1-deoxyfructos-1-yl)-Hhp-Asp [compound 10]
56 | enkephalinase-inhibitory activity | CC[C@H](C)[C@H](NCC(=O)[C@@H](O)[C@H](O)[C@H](O)CO)C(=O)N[C@@H](CCC(=O)O)C(=O)O [compound 8, N-(1-deoxyfructos-1-yl)-Ile-Glu]
56 |  | O=C(O)CC[C@H](NC(=O)[C@H](Cc1ccccc1)NCC(=O)[C@@H](O)[C@H](O)[C@H](O)CO)C(=O)O [compound 5, N-(1-deoxyfructos-1-yl)-Phe-Glu]
6.3 | enkephalinase-inhibitory activity | CC(C)[C@H](NCC(=O)[C@@H](O)[C@H](O)[C@H](O)CO)C(=O)N[C@@H](CC(=O)O)C(=O)O [compound 4, N-(1-deoxyfructos-1-yl)-Val-Asp]
